# Experiments:
# fundic pouch dog [1] = test: Suppressing action on gastric acid secretion (tetragastrin stimulation) in fundic pouch dog; format: in vivo; settings: for Amount of gastric juice secretion: tetragastrin stimulation 2 μg/kg/hr, control 40.1 ± 3.9, mean ± standard error for 6 samples
# Experimental: (§1) An effect on gastric acid secretion by stimulation under awakening was studied by using (fundic pouch dog). For preparation of the fundic pouch dog, a mongrel dog after starvation overnight was subjected to sterile ventrotomy under anesthesia using sodium pentobarbital (30 mg/kg, i.v.), and a fistula was attached to a part of the corpus ventriculi. After recovery period for two weeks, the dog was fixed to the Pavlov's stand, and gastric juice was collected every 15 minutes for 4 hours under histamine stimulation (0.2 mg/kg/hr). A volume of each collected gastric juice was recorded, and the juice was titrated with 0.01N NaOH using pH automatic measuring apparatus (Radiometer Copenhagen). The test compound, encapsulated in a gelatin capsule, was orally administered one hour before histamine administration.
# Experiment was conducted in a similar manner as Example 1 except that the stimulating agent was replaced with tetragastrin(2 μg/kg/hr).
# fundic pouch dog [2] = test: Suppressing action on gastric acid secretion (histamine stimulation) in fundic pouch dog; format: in vivo; settings: for Amount of gastric juice secretion: histamine stimulation 0.2 mg/kg/hr, control 116.1 ± 12.3, mean ± standard error for 6 samples
# Experimental: as §1
smiles,measurement,setting,value
"O=C(N[C@H]1CN2CCC1CC2)c1cnc2ccsc2c1O [Test compound, R-(−)-N-(1-azabicyclo[2.2.2]oct-3-yl)-7-hydroxythieno[3,2-b]-pyridine-6-carboxamide]",Amount of gastric juice secretion,fundic pouch dog [1]; 10 μg/kg oral,26.7 ± 7.8 mEq/4 hr
same,Amount of gastric juice secretion,fundic pouch dog [1]; 30 μg/kg oral,12.9 ± 5.3 mEq/4 hr
same,secretion of gastric juice by tetragastrin stimulation (result in words),"fundic pouch dog [1]; tetragastrin stimulation, fundic pouch dog",suppressed
same,Amount of gastric juice secretion,fundic pouch dog [2]; 3 μg/kg oral (gelatin capsule) one hour before histamine,76.8 ± 7.4 mEq/4 hr
same,Amount of gastric juice secretion,fundic pouch dog [2]; 10 μg/kg oral (gelatin capsule) one hour before histamine,61.9 ± 5.5 mEq/4 hr
same,secretion of gastric juice by histamine stimulation (result in words),"fundic pouch dog [2]; histamine stimulation, fundic pouch dog",suppressed
